For one series, the target named is T1, NHE3 (Homo sapiens, UniProt P48764).
T1 sequence (P48764 26-834): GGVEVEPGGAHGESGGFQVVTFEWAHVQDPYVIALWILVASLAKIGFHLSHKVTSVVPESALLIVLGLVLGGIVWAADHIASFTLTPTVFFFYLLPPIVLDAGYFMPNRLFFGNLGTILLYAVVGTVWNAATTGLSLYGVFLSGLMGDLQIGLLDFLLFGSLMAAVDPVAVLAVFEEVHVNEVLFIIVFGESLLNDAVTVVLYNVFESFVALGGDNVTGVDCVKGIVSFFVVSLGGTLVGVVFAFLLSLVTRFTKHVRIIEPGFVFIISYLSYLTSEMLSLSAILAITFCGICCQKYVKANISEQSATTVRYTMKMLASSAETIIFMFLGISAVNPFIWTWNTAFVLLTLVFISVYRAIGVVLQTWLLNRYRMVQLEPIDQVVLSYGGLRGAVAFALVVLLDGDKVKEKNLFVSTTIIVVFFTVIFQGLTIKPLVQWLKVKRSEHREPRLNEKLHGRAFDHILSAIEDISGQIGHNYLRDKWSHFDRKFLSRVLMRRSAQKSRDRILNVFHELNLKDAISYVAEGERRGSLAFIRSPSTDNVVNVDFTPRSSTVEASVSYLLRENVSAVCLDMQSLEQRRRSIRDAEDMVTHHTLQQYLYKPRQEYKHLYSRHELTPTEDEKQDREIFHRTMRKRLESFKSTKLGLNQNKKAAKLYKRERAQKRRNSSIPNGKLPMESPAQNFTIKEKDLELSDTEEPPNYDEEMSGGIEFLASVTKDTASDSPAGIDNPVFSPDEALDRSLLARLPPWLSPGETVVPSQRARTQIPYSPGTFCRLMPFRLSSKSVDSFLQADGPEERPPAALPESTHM
The series can be described thus: Determination of the NHE-inhibitory effect (recovery of intracellular pH after acidification, BCECF fluorescence). Format: cell-based. As to conditions: pH recovery recorded for three minutes with NHE3; BCECF-loaded cells. The protocol:
Description of Assay: Determination of the NHE-Inhibitory Effect
In this assay, the recovery of the intracellular pH (pHj) after an acidification which occurs even under bicarbonate-free conditions with functional NHE was determined. To this end, the pHj was determined using the pH-sensitive fluorescent dye BCECF (Calbiochem, the precursor BCECF-AM was employed). The cells were initially loaded with BCECF. The BCECF fluorescence was determined in a ratio fluorescence spectrometer (Photon Technology International, South Brunswick, N.J., USA) with excitation wavelengths of 505 and 440 nm and an emission wavelength of 535 nm and converted into the pHj using calibration plots. The cells had been incubated in NH4Cl buffer (pH 7.4) for the BCECF loading (NH4Cl buffer: 115 mM NaCl, 20 mM NH4Cl, 5 mM KCl, 1 mM CaCl2, 1 mM MgSO4, 20 mM Hepes, 5 mM glucose, 1 mg/ml BSA; a pH of 7.4 was adjusted with 1 M NaOH). The intracellular acidification was induced by adding 975 μl of an NH4Cl-free buffer (see below) to 25 μl aliquots of the cells incubated in NH4Cl buffer. The subsequent rate of pH recovery was recorded for two minutes with NHE1, five minutes with NHE2 and three minutes with NHE3. To calculate the inhibitory power of the tested substances, the cells were initially investigated in buffers with which there was complete or absolutely no pH recovery. For complete pH recovery (100%), the cells were incubated in Na^+-containing buffer (133.8 mM NaCl, 4.7 mM KCl, 1.25 mM CaCl2, 1.25 mM MgCl2, 0.97 mM Na2HPO4, 0.23 mM NaH2PO4, 5 mM Hepes, 5 mM glucose, a pH of 7.0 was adjusted with 1 M NaOH). To determine the 0% value, the cells were incubated in an Na^+-free buffer (133.8 mM choline chloride, 4.7 mM KCl, 1.25 mM CaCl2, 1.25 mM MgCl2, 0.97 mM K2HPO4, 0.23 mM KH2PO4, 5 mM Hepes, 5 mM glucose, a pH of 7.0 was adjusted with 1 M NaOH). The substances to be tested were made up in the Na^+-containing buffer. The recovery of the intracellular pH at each tested concentration of a substance was expressed as a percentage of the maximum recovery. The IC50 of the respective substance for the individual NHE subtypes was calculated from the percentages of pH recovery using the Sigma Plot program.

We go through five compounds from patent publication US8124621B2, “Substituted 1-amino-4-phenyl-dihydroisoquinolines, methods for the production thereof, use thereof as a medicament, and medicaments containing them” (Sanofi-Aventis, priority 2006, dated 2012).

Structures can show the parent of a compound that is named as a salt.

For the compound `NC1=NCC(c2ccc(N)cc2)c2cc(Cl)ccc21` (centres unmarked) (as salt: hydrochloride) [Example 1A, 1-Amino-4-(4-aminophenyl)-6-chloro-3,4-dihydroisoquinoline Hydrochloride], the melting point lay in the range of 278 to 284 °C. On NHE3, `CNC1=NCC(c2ccc(N)cc2)c2cc(Cl)ccc21` (centres unmarked) [Example 3, 4-(4-Aminophenyl)-6-chloro-1-methylamino-3,4-dihydroisoquinoline Hydrochloride] yielded a 50% inhibitory concentration (IC50) of 4.93 µM. On NHE3, `NC1=NCC(c2ccc(N)cc2)c2ccccc21` (centres unmarked) [Example 1B, 1-amino-4-(4-aminophenyl)-3,4-dihydroisoquinoline Hydrochloride] yielded a half-inhibitory concentration (IC50) of 8.24 µM. Compound `NC1=NCC(c2ccc(N)cc2)c2cc(Cl)ccc21` (centres unmarked) [Example 1A, 1-Amino-4-(4-aminophenyl)-6-chloro-3,4-dihydroisoquinoline Hydrochloride] yielded an IC50 against NHE3 of 1.95 µM. At NHE3, `NC1=NCC(c2ccccc2N)c2cc(Cl)ccc21` (centres unmarked) [Example 2, 1-Amino-4-(2-aminophenyl)-6-chloro-3,4-dihydroisoquinoline Hydrochloride] showed an IC50 of 1.63 µM.

Usually melting point stands for the temperature of the solid-liquid transition. The IC50 is the concentration at which inhibition is half-maximal.
